Patent US20030114402A1, “Modulators of DNA cytosine-5 methyltransferase and methods for use thereof” (The Regents of the University of California, priority 1997, published 2003)
“Also recorded” adds a separate entry of the source. Blank lines part the entries; values can stand above or below the molecule they belong to. [5mC] = 5-methylcytosine

Legend:
[1] = target: T1, DCMTase (Mus musculus, UniProt P13864); assay: Dead-end inhibition of poly(dI.dC:dI.dC) methylation by single-stranded DNA; type: biochemical
T1 construct: DCMTase was purified from mouse erythroleukemia cells as previously described; endogenous in cells; host or cells: mouse erythroleukemia (MEL) cells; enzyme purified from them
T1 sequence (P13864 whole entry): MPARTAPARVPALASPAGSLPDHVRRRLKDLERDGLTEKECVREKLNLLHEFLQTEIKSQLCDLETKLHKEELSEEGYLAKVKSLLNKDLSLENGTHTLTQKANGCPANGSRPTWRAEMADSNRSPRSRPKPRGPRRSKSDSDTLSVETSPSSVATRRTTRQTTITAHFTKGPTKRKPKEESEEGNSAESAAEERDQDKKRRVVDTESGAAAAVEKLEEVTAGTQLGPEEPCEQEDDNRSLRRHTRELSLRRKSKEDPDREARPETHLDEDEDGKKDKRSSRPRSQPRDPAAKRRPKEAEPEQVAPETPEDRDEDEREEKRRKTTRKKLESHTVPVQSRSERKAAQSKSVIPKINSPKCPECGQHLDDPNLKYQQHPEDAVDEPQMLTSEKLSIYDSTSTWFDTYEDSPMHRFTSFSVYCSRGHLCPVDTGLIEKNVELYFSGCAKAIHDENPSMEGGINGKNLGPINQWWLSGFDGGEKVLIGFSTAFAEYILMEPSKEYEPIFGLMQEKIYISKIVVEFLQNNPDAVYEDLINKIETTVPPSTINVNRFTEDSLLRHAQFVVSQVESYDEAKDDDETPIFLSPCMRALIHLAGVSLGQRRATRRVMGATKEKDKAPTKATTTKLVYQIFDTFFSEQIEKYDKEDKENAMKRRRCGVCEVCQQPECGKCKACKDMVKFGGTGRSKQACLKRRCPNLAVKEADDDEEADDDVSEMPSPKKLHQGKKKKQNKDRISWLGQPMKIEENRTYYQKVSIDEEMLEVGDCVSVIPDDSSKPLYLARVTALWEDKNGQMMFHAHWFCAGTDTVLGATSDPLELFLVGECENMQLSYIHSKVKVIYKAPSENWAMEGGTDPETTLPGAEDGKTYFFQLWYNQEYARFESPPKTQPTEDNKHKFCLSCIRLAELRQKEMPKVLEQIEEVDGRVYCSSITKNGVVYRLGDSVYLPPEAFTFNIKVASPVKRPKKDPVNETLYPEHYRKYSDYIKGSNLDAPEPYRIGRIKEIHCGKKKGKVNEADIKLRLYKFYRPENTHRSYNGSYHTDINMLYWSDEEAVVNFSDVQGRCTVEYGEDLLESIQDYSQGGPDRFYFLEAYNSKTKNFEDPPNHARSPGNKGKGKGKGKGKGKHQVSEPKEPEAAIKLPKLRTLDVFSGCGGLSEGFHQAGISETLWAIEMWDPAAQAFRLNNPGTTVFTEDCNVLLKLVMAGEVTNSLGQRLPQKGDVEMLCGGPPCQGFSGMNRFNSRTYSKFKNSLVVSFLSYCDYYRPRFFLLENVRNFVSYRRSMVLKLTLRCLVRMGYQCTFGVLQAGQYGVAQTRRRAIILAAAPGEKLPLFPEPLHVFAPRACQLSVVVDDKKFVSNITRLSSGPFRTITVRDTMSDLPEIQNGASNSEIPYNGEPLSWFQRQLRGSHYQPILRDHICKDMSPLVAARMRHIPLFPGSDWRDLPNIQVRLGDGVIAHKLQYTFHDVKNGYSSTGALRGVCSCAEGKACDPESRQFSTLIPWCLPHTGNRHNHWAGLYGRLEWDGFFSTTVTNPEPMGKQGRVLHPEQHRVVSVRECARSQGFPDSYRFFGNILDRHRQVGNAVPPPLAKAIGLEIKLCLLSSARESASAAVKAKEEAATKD
Protocol: (§1) After preincubation at room temperature for up to 10 minutes, reactions were initiated by the addition of poly(dI.dC:dI.dC) and, if indicated, inhibitor DNA or reaction products. […] Single-stranded DNA was heated to 90° C. and quick cooled on ice, prior to initiation of the reaction. Freeze-thawed DNA produced equivalent results. Incubations were at 37° C. for 60 minutes. The poly(dI.dC:dI.dC) concentrations were 2.0, 4.0, 8.0, 16, 35, 80, 160, 250, 400, 700 and 1000 pM. In some experiments, GC-box a/b was the substrate, using 100 nM DCMTase and DNA concentrations of 0.20, 0.40, 1.0, 2.0, 4.0, 8.0, 15, 23 and 35 μM. The reaction was stopped after 60 minutes by transferring 20 μL of the reaction onto a DE 81 filter paper that was processed as described (Flynn et al., 1996). The radioactivity above the background, determined from assays without added poly(dI.dC:dI.dC), was converted to initial velocities and expressed as picomoles of methyl groups transferred to poly(dI.dC:dI.dC) per hour and plotted in double reciprocal form.
The poly(dI.dC:dI.dC) concentrations were 10, 13, 20, 40 and 100 pM. The GC-box b concentrations were: diamonds, 0; circles, 0.75 μM; triangles, 1.5 μM; squares, 5.0 μM. Incubations were at 37° C. for 60 minutes.
The poly(dI.dC:dI.dC) concentrations were 1.5, 3.0, 7.5, 15 and 20 pM. The GC-box b^MET concentrations were: squares, 0; circles, 10 nM; diamonds. 20 nM; triangles, 40 nM. Incubations were at 37° C. for 60 minutes.
The GC-box b^MET concentrations were: squares, 0; circles, 20 nM; diamonds, 40 nM; triangles, 80 nM. Incubations were at 37° C. for 60 minutes.
(§2) The Michaelis-Menton equation was used for studies into DNA length contributions to catalysis using KaliedaGraph 2.1.2 (Synergy Software). For mechanistic determinations, the nomenclature used is that of Cleland, W. W., 1963a. Biochimi. Biophysi. Acta 67:104-137. All steady-state data were analyzed using regression analyses of the appropriate initial velocity equation, listed below, using the Cleland programs (Cleland, W. W., 1979, Statistical analysis of enzyme kinetic data. Methods in Enzymol. 63:103-138).
(§3) The algorithms perform a non-linear least squares fit to the entire data set. Mechanistic determinations were made by comparison of the sigma values associated with the fit to each equation. The standard errors associated with fitted parameters and graphical analysis of the experimental data scattered around the calculated best fit lines were also considered in making an assignment.

[2] = target: T1, DCMTase; settings: previous kinetic study (Flynn et al., 1996); cited from earlier work
[3] = system: mouse erythroleukemia (MEL) cells; assay: Anti-proliferative effects on MEL cells; type: cell-based; settings: for growth rate of MEL cells: incubation with inhibitor, concentration dependent
[4] = target: T1, DCMTase; assay: Product inhibition studies, steady-state; type: biochemical; set-up: key to Type of Inhibition: C: competitive; NC: noncompetitive; UC: uncompetitive inhibition
Protocol: as §1
The AdoHcy concentrations were: squares, 0; diamonds, 0.75 ,μM; circles, 1.5 μM; triangles, 3.0 μM; notched squares, 6.0 μM. Incubations were at 37° C. for 60 minutes.
For the double reciprocal plot of AdoHcy product inhibition with varying poly(dI.dC:dI.dC) concentrations (FIGS. 17A-C), reactions contained 20 nM DCMTase in 100 mM Tris pH 8.0, 10 mM EDTA, 10 mM DTT, 200 μg/mL BSA. Incubations were at 37° C. for 60 minutes. The poly(dI.dC:dI.dC) concentrations were 2.5, 5.0, 10, and 20 pM. The AdoHcy concentrations were: squares, 0; diamonds, 15 μM; circles, 30 μM.
The poly(dId^mC:dId^mC) concentrations were: squares, 0; diamonds, 5.0 pM; circles, 10 pM; triangles, 20 pM. Incubations were at 37° C. for 60 minutes. Experimental data are shown scattered around lines derived from a fit to equation 5 for noncompetitive inhibition.
200 μg/mL BSA. Incubations were at 37° C. for 60 minutes. The poly(dI.dC:dI.dC) concentrations were 20, 40, 80, 120 and 160 pM. The poly(dId^mC:dId^mC) concentrations were: squares, 0; triangles, 34 pM; circles, 45 pM; diamonds, 68, notched squares, 90 pM. Experimental data are shown scattered around lines. In FIG. 19A, lines are derived from a fit to equation 4 for competitive inhibition. In FIG. 19B, lines are derived from a fit to equation 5 for noncompetitive inhibition. Both fittings are not acceptable.
as §2, §3

[5] = target: DNA cytosine-5 methyltransferase (DCMTase, Dnmt1) (Mus musculus) (UniProt P13864); assay: EMSA; settings: pooled generation-5 sequences vs starting pool
DNA cytosine-5 methyltransferase (DCMTase, Dnmt1) (Mus musculus), sequence (P13864 whole entry): as above

[6] = target: DNA cytosine-5 methyltransferase (DCMTase, Dnmt1) (Mus musculus) (UniProt P13864); assay: inhibition
[7] = target: T2, DNA cytosine-5 methyltransferase (DCMTase, Dnmt1) (Mus musculus, UniProt P13864 P13864:1-1620); assay: EMSA; unit printed as mM (text indicates micromolar); at limit of resolution; settings: tags: none; purified from mouse erythroleukemia (MEL) cells
T2 sequence (P13864 whole entry, one chain of several): as the sequence (P13864 whole entry) above
Protocol: (§4) Gel mobility shift assays (GMSA) were performed with minor revisions to the original procedures (Fried, M., & Crothers, D. M., 1981, Equilibria and kinetics of the lac repressor-operator interactions by polyacrylamide gel electrophoresis, Nucleic Acids Res. 9:6505-6525; Garner, M. M. & Revzin, A., 1981, A gel electrophoresis method for quantifying the binding proteins to specific DNA regions: applications to components of the Escherichia coli lactose operon regulatory system, Nucleic Acids Res. 13:3047-3060). […]
(§5) Steady-state kinetic analyses of the DCMTase with the same 30 base-pair DNA substrates used in these studies indicate that Kₘ^DNA is 1000- to 50,000-fold higher (Flynn, J., et al., 1996, Murine DNA cytosine-C5 methyltransferase: Pre-steady- and steady-state kinetic analyses with regulatory DNA sequences, Biochemistry 35:7308-7315) than the DNA concentrations used to generate FIG. 2 and used by Reale et al, 1995, supra. […] Therefore, the stability of protein:DNA was determined by keeping the enzyme at a constant concentration (100 nM) and varying the amount of added DNA (Dubey & Roberts, 1992, supra).

[8] = target: T2, DNA cytosine-5 methyltransferase …; assay: EMSA; unit printed as mM (text indicates micromolar); settings: tags: none, purified from mouse erythroleukemia (MEL) cells
Protocol: Gel mobility shift assays (GMSA) were performed with minor revisions to the original procedures (Fried, M., & Crothers, D. M., 1981, Equilibria and kinetics of the lac repressor-operator interactions by polyacrylamide gel electrophoresis, Nucleic Acids Res. 9:6505-6525; Garner, M. M. & Revzin, A., 1981, A gel electrophoresis method for quantifying the binding proteins to specific DNA regions: applications to components of the Escherichia coli lactose operon regulatory system, Nucleic Acids Res. 13:3047-3060). All reactions were done in 100 mM Hepes pH 7.4, 10 mM EDTA, 10 mM DTT, […], 5% glycerol using the indicated P-labeled DNA and DCMTase concentrations, incubated on ice for 5 minutes and loaded on a 1×TBE(89 mM Tris-HCl pH 8.3, 89 mM boric acid, 2 mM EDTA), 6% polyacrylamide gel. Electrophoresis was done at 250 V, 9 mA for 2 hours at 4° C. and the dried gel was exposed to film overnight. The reaction conditions for buffer, temperature, incubation time, cofactor addition and gel composition have all been optimized. Only slightly better complex resolution was obtained under the listed conditions compared to a 10 minute incubation at 37° C. prior to gel loading at room temperature and containing either cofactor S-adenosyl-L-methionine, product S-adenosyl-L-homocysteine, or the AdoMet analog sinefungin. Hepes reaction buffer at pH 7.4 produced sharper banding than Tris-HCl at pH 8.0. […] Subsequent assays used a limiting and constant enzyme concentration with varying DNA concentrations.
as §5

[9] = target: T2, DNA cytosine-5 methyltransferase …; assay: EMSA; unit printed as mM (text indicates micromolar); 100 nM enzyme, DNA varied; Hepes pH 7.4, 10 mM EDTA, on ice, no AdoMet; settings: tags: none; purified from mouse erythroleukemia (MEL) cells; label: 32P
Protocol: as §4, §5

Molecule: 5′-CTGGATCCTTGCCCCGCCCCTTGAATTCCC-3′ (DNA, backbone not given here) [GC-box b]
Mode of Inhibition [1]: Noncompetitive with poly(dIdC:dIdC) | alpha factor, Kii/Kis [1]: 1.9 | Ki ([1]; poly(dI.dC:dI.dC) varied, noncompetitive fit, 15 μM AdoMet, read-out: Kii): 6800 nM | Ki ([1]; poly(dI.dC:dI.dC) varied, noncompetitive fit, 15 μM AdoMet, read-out: Kis): 3600 nM | enzyme activity with single-stranded substrate [2]: no detectable enzyme activity

Molecule: 5′-CTGGATCCTTGCCC^mCGCCCCTTGAATTCCC-3′ (DNA CTGGATCCTTGCCCCGCCCCTTGAATTCCC; DNA, [5mC] at 15, backbone not given here) [GC-box b^MET]
growth rate of MEL cells [3]: slows down the growth rate | Mode of Inhibition [1]: Uncompetitive with poly(dIdC:dIdC); also recorded: Competitive with Adomet | Ki ([1]; AdoMet varied, constant 50 pM poly(dI.dC:dI.dC), competitive fit, read-out: Inhibition Constant, slope derived (Kis), equation 4): 25 nM | Ki ([1]; Kii and Kis, read-out: the two inhibition constants in agreement): ~20 nM | lower affinity for free enzyme in the absence of poly(dI.dC:dI.dC) ([1]; compared with Example 1 binding): 120 fold | Ki ([1]; poly(dI.dC:dI.dC) varied, uncompetitive fit, 10 μM AdoMet, read-out: Inhibition Constant, intercept derived Kii, equation 6): 20 nM | Ki ([1]; read-out: KI, dissociation constant from the DCMTase:poly(dI.dC:dI.dC) complex): 2.5 nM | lower inhibition constant (increased inhibition) versus GC-box b ([1]; single 5-mC substitution): 200 fold

Molecule: 5′-GGGAATTCAAGGGGCGGGGCAAGGATCCAG-3′ (DNA, backbone not given here) [GC-box a]
enzyme activity with single-stranded substrate [2]: no detectable enzyme activity

Ki ([4]; varied AdoMet, fixed poly(dIdC:dIdC), competitive, read-out: Inhibition Constant Kis): 1400 nM | Ki ([4]; varied poly(dI.dC:dI.dC), low AdoMet concentrations, read-out: Kii, noncompetitive model): 2500 nM | Ki ([4]; varied poly(dI.dC:dI.dC), low AdoMet concentrations, read-out: Kii, uncompetitive model): 2000 nM | Ki ([4]; varied poly(dI.dC:dI.dC), low AdoMet concentrations, read-out: Kis, noncompetitive model): 63000 nM | Type of Inhibition ([4]; varied substrate AdoMet, fixed substrate IC): C | Type of Inhibition ([4]; varied substrate IC, fixed substrate AdoMet): NC/UC
Molecule: Nc1ncnc2c1ncn2[C@@H]1O[C@H](CSCC[C@H](N)C(=O)O)[C@@H](O)[C@H]1O [AdoHcy, S-adenosyl homocysteine]

Molecule: GC-box p^MET: SEQ ID NO:10 with a phosphorothioate backbone (DNA CTGGATCCTTGCCCCGCCCCTTGAATTCCC; listed as DNA, chemistry not fully specified)
occurrence of large multi-nucleate cells among regularly sized cells ([3]; five days of incubation, 10 micromolar): about one in fifty | growth rate of MEL cells [3]: slows down the growth rate

Molecule: GGGAATTCATGGATCCTAAANNNNNNNNNNNNCGNNNNNNNNNNNNTTTCAAGCTTGTGATTCCC (double strand) [generation-5 selected pool]
binding signal (fold tighter than starting pool) [5]: 2

Molecule: poly(dI.dC:dI.dC), average 6250 or 5000 bp
Ki ([6]; substrate inhibition, 6250 bp, apparent Km 5.5 +/- 0.9 pM, true Km 36 +/- 5 pM): 1 nM

Molecule: poly(dI.dmC:dI.dmC), fully methylated
Ki ([6]; 5mC at all M.SssI sites, Kis, noncompetitive product inhibition vs AdoMet, Kii 30 +/- 12 pM): 0.0053 nM

B1: CRE b (ssDNA)
DNA: CTGGATCCTTTTGACGTCATTTGAATTCCC
Kd [7]: > 50000 nM

B2: CRE a/b (dsDNA)
DNA 1: GGGAATTCAAATGACGTCAAAAGGATCCAG
DNA 2: B1 DNA
Kd ([8]; label: 32P): 1500 nM

B3: GC-box a (ssDNA)
DNA: GGGAATTCAAGGGGCGGGGCAAGGATCCAG
Kd [8]: 1200 nM

B4: CRE a (ssDNA)
DNA: B2 DNA 1
Kd [7]: > 50000 nM

B5: CRE aMET/b (dsDNA)
DNA 1: B2 DNA 1
DNA 2: B1 DNA
modifications: 5mC at position 15 of strand a (hemi-methylated CpG)
Kd ([8]; label: 32P): 1000 nM

B6: GC-box a/bMET (dsDNA)
DNA 1: B3 DNA
DNA 2: CTGGATCCTTGCCCCGCCCCTTGAATTCCC
modifications: 5mC at position 15 of strand b (hemi-methylated CpG)
Kd [9]: 360 nM
